The test system of experiment [1] is THIK-1 channel. Set-up: method as in PMID 24081450. The conditions noted are these: cited from earlier work.
Experiment [2] has as its system THIK-1 channel. Nature of the experiment: Basal current (I0) density of THIK-1 channel at 0 mV in HEK293T cells. The settings on record: for Basal current (I0) density of THIK-1 channel: 0 mV, before agonist; for Basal current I0: THIK-1 & M1R. The format is cell-based. The text has this:
(§1) Coding region of mGu2 (M1-P840) was amplified by conventional PCR with designed primers and the resulting product was subcloned into pEYFP-N1 vector at the BglII and EcoRI sites. The cDNAs for mouse THIK-2 channel and dimeric THIK channels were subcloned into pcDNA3.1(-) vector. To increase the surface membrane expression of the THIK-2 channel, 29 residues (Ser2-Ser30) were removed (ΔN-THIK-2). […] Ci-VSP-IRES-GFP vector was kindly gifted by Dr. Y. Okamura (Osaka University, Osaka, Japan). HEK293T cells or CHO-K1 cells were seeded on glasses and transfected with the plasmid DNAs for THIK channels, receptors and a transfection marker of yellow fluorescent protein (YFP). Electrophysiological experiments were performed 24–72 h after the transfection. […] Pertussis toxin (PTX) was purchased from Wako (Osaka, Japan). […] All reagents were dissolved at high concentration and stored at -20 °C as the stock solutions. The stock reagent solution was diluted at concentrations for the electrophysiological experiments. PTX was solved in the culture medium (final concentration, 300 ng/mL) and cells were incubated in it for more than 16 h. U73122 or U73343 (final concentration, 2 μM each) was dissolved in Hanks’ Balanced Salt Solution (HBSS, Invitrogen, Carlsbad, CA, USA) supplemented with 1 mM Ca^2+ and 0.3 mM Mg^2+. Cells were incubated in HBSS with U73122 or U73343 for 10 min at room temperature before the whole cell current recording.
(§2) Composition of bath solution was (in mM) 140 NaCl, 4 KCl, 1 CaCl2, 0.3 MgCl2, 10 HEPES (pH 7.4 adjusted with NaOH). The pipette solution for whole cell patch clamp experiments contained (mM) 130 KCl, 5 Na2-ATP, 3 EGTA, 0.1 CaCl2, 10 HEPES, 4 MgCl2, (pH 7.3 adjusted with KOH). GTP (0.3 mM) was supplemented in the pipette solution. Once the whole cell configuration was established, the cell was held at -80mV and ramp pulses (-120mV to +40mV for 0.4 sec) were applied every 5 sec. Various concentrations of the agonists were applied using a fast perfusion system (VC77SP, Warner Instruments, Hamden, CT, USA). The PKC inhibitor chelerythrine was included in the pipette solution.
(§3) The amplitude of the THIK-1 channel current at 0 mV was measured from every trace induced by the ramp pulse protocol to minimize the fraction of non-selective cationic leak current. The current amplitude before the agonist application was set as the basal current amplitude (I0). The effects of GPCRs on the THIK-1 channel were evaluated as the ratio of the current amplitude after the agonist application to I0 (Iagonist/I0). The EC50 values were estimated by fitting the concentration response curve to a Hill equation (Origin2016; OriginLab, Northampton, MA, USA). […] The effects of A2aR on the Gi/o-R-induced current increase of the THIK-1 channel was estimated as follows. […] All data are shown as means and S.D. The statistical significance between two or more than two groups was estimated by unpaired Student’s t-test or by a one-way analysis of variance (ANOVA) followed by Tukey’s test, respectively. […] Values of p≤ 0.05 were considered as statistically significant (***:p≤0.001, **:0.001<p≤0.01, *:0.01<p≤0.05, n.s.:p>0.05).

Experiment [3] deals with T1, M1R-YFP / ΔN-THIK-2 channel (Homo sapiens, UniProt P11229).
T1 construct: expressed in transfected cells; host or cells: CHO-K1
T1 sequence (P11229 1-460): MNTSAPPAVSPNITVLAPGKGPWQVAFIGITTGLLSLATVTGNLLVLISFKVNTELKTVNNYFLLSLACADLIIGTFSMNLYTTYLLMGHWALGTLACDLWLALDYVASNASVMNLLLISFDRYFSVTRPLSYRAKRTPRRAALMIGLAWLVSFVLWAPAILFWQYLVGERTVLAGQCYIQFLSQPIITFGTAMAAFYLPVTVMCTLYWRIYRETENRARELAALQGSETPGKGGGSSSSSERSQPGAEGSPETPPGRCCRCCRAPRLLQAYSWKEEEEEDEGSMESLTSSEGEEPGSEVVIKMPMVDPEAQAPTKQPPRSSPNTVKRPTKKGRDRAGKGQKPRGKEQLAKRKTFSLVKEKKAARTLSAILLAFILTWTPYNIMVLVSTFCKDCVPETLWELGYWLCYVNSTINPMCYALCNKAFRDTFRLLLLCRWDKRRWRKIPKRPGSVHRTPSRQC
Nature of the experiment: M1R-YFP-induced increase of ΔN-THIK-2 channel current in CHO-K1 cells. The format is cell-based, mouse. The conditions noted are these: oxo-M 10 μM.
Description: as §1, with “Cells were incubated in HBSS with U73122 or U73343 for 10 min at room temperature before the whole cell current recording.” left out

A further experiment addresses T2, M1R (Homo sapiens, UniProt P11229).
T2 construct: expressed in transfected cells; host or cells: HEK293T
T2 sequence (P11229 1-460): T1 sequence (P11229 1-460)
Nature of the experiment: M1R-induced increase of THIK-1 channel current, whole cell patch clamp in HEK293T cells. The format is cell-based. The conditions noted are these: for Ioxo/I0: oxo-M 10 μM.
Description: as §1, §2, §3

The mark [4] stands for this setting: chelerythrine 3 μM in pipette solution.
Setting [5] is: chelerythrine 10 μM in pipette solution.
Setting [6] is: chelerythrine 30 μM in pipette solution.

The source of these data is paper PMC10132538, “Regulation of the two-pore domain potassium channel, THIK-1 and THIK-2, by G protein coupled receptors” (PLOS ONE, 2023).

SMILES strings stand for the structures.

On to `CCCCCCCCCCCCCC(=O)O[C@@H]1[C@@H](C)[C@@]2(O)[C@@H](C=C(CO)C[C@]3(O)C(=O)C(C)=C[C@@H]23)[C@@H]2C(C)(C)[C@]12OC(C)=O` [phorbol myristate acetate], for which, in the experiment with THIK-1 channel [1], the “activation of the THIK-1 channel” value is “did not activate”.
For `COc1ccc2c(c1)CC[C@@H]1[C@@H]2CC[C@]2(C)[C@@H](NCCCCCCN3C(=O)CCC3=O)CC[C@@H]12` [U73343], the “Basal current (I0) density of THIK-1 channel” value was 46.5 ± 22.3 (10)^n.s pA/pF in the experiment on THIK-1 channel [2] (THIK-1 + M1R, PLC reagent 2 μM 10 min); 113.3 ± 122.1 (7)^n.s pA/pF in the experiment with THIK-1 channel [2] (THIK-1 + M3R, PLC reagent 2 μM 10 min); 121.0 ± 104.7 (12)^n.s pA/pF in the experiment with THIK-1 channel [2] (THIK-1 + mGlu1, PLC reagent 2 μM 10 min). In addition, the “effect of M1R-YFP on ΔN-THIK-2 channel after PLC reagent” value in experiment [3] is “not”.
As to `COc1ccc2c(c[n+](C)c3c4cc5c(cc4ccc23)OCO5)c1OC` [chelerythrine, Chelerythrine], the results for the “Basal current I0” value with THIK-1 channel [2] (setting [4]), in the experiment on THIK-1 channel [2] (setting [5]) and in the experiment on THIK-1 channel [2] (setting [6]) were 43.1 ± 46.8 ^n.s. pA/pF, 56.4 ± 46.7 ^n.s. pA/pF and 22.8 ± 15.5 ^n.s. pA/pF, respectively. The “effect of PKC inhibitor on the effect of M1R” value on M1R (3–30 μM in the pipette solution) is reported as “did not inhibit the effect of M1R”. Moreover, the Ioxo/I0 was 4.4 ± 2.4 ^n.s on M1R (setting [4]), 2.2 ± 0.6 ^n.s at M1R (setting [5]) and 2.7 ± 1.0 ^n.s at M1R (setting [6]).
For the compound `O=C(O)CN(CC(=O)O)c1ccccc1OCCOc1ccccc1N(CC(=O)O)CC(=O)O` [BAPTA], at M1R (BAPTA 5 mM in pipette solution, n = 8), the “effect of the M1R activation (Iagonist/I0)” value is reported as 3.0 ± 1.0.
